According to PubChem BioAssay AID180 (DTP/NCI, 2004):
Where “and” joins values, the source holds several entries; their conditions need not be identical. Identical values can stand only once.

Test system: BDF1 mice, Adenocarcinoma 755 s.c., tumor weight T/C
Assay: NCI In Vivo Anticancer Drug Screen. Data for tumor model Adenocarcinoma 755 (subcutaneous) in B6D2F1 (BDF1) mice
Settings: endpoint: mean tumor weight, higher = larger tumour
Outline: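 Tumor-bearing mice receive test compound while controls get vehicle alone. Antitumor effect is scored from survival or tumor dimensions as a T/C quotient.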

Nc1nc(SCc2ccccc2)c2[nH]cnc2n1
T/C (dose: 0.37 mg/kg/injection, schedule: Q01DX011 (ip), vehicle: carboxymethylcellulose (CMC)): 114 % of control
T/C (dose: 0.37 mg/kg/injection, schedule: Q01DX011 (oral), vehicle: carboxymethylcellulose (CMC)): 71 % of control
T/C (dose: 0.75 mg/kg/injection, schedule: Q01DX011 (ip), vehicle: carboxymethylcellulose (CMC)): 38 % of control
T/C (dose: 0.75 mg/kg/injection, schedule: Q01DX011 (oral), vehicle: carboxymethylcellulose (CMC)): 52 % of control
T/C (dose: 1.0 mg/kg/injection, schedule: Q#A X021 (ip), vehicle: carboxymethylcellulose (CMC)): 45 % of control
T/C (dose: 1.25 mg/kg/injection, schedule: Q01DX011 (ip), vehicle: carboxymethylcellulose (CMC)): 53 % of control
T/C (dose: 1.5 mg/kg/injection, schedule: Q01DX011 (im), vehicle: carboxymethylcellulose (CMC)): 69 % of control
T/C (dose: 1.5 mg/kg/injection, schedule: Q01DX011 (ip), vehicle: carboxymethylcellulose (CMC)): 41 % of control
T/C (dose: 1.5 mg/kg/injection, schedule: Q01DX011 (oral), vehicle: carboxymethylcellulose (CMC)): 61 % of control
T/C (dose: 1.75 mg/kg/injection, schedule: Q01DX001 (ip), vehicle: carboxymethylcellulose (CMC)): 94 % of control and 114 % of control
T/C (dose: 2.0 mg/kg/injection, schedule: Q01DX006 (iv), vehicle: carboxymethylcellulose (CMC)): 91 % of control
T/C (dose: 2.0 mg/kg/injection, schedule: Q01DX011 (im), vehicle: carboxymethylcellulose (CMC)): 38 % of control
T/C (dose: 2.0 mg/kg/injection, schedule: Q01DX011 (ip), vehicle: carboxymethylcellulose (CMC)): 33 % of control
T/C (dose: 2.0 mg/kg/injection, schedule: Q01DX011 (sc), vehicle: carboxymethylcellulose (CMC)): 56 % of control
T/C (dose: 2.0 mg/kg/injection, schedule: Q#A X021 (ip), vehicle: carboxymethylcellulose (CMC)): 15 % of control
T/C (dose: 2.5 mg/kg/injection, schedule: Q01DX011 (ip), vehicle: carboxymethylcellulose (CMC)): 32 % of control
T/C (dose: 3.0 mg/kg/injection, schedule: Q01DX011 (im), vehicle: carboxymethylcellulose (CMC)): 12 % of control
T/C (dose: 3.0 mg/kg/injection, schedule: Q01DX011 (ip), vehicle: carboxymethylcellulose (CMC)): 5 % of control
T/C (dose: 3.0 mg/kg/injection, schedule: Q01DX011 (oral), vehicle: carboxymethylcellulose (CMC)): 19 % of control
T/C (dose: 3.5 mg/kg/injection, schedule: Q01DX001 (ip), vehicle: carboxymethylcellulose (CMC)): 112 % of control and 115 % of control
T/C (dose: 4.0 mg/kg/injection, schedule: Q01DX006 (iv), vehicle: carboxymethylcellulose (CMC)): 40 % of control
T/C (dose: 4.0 mg/kg/injection, schedule: Q01DX011 (im), vehicle: carboxymethylcellulose (CMC)): 10 % of control
T/C (dose: 4.0 mg/kg/injection, schedule: Q01DX011 (ip), vehicle: carboxymethylcellulose (CMC)): 8 % of control
T/C (dose: 4.0 mg/kg/injection, schedule: Q01DX011 (sc), vehicle: carboxymethylcellulose (CMC)): 13 % of control
T/C (dose: 7.0 mg/kg/injection, schedule: Q01DX001 (ip), vehicle: carboxymethylcellulose (CMC)): 20 % of control and 33 % of control
T/C (dose: 8.0 mg/kg/injection, schedule: Q01DX006 (iv), vehicle: carboxymethylcellulose (CMC)): 13 % of control
T/C (dose: 8.0 mg/kg/injection, schedule: Q01DX011 (im), vehicle: carboxymethylcellulose (CMC)): 3 % of control
T/C (dose: 8.0 mg/kg/injection, schedule: Q01DX011 (ip), vehicle: carboxymethylcellulose (CMC)): 3 % of control
T/C (dose: 8.0 mg/kg/injection, schedule: Q01DX011 (sc), vehicle: carboxymethylcellulose (CMC)): 4 % of control
T/C (dose: 8.0 mg/kg/injection, schedule: Q03DX004 (ip), vehicle: carboxymethylcellulose (CMC)): 25 % of control
T/C (dose: 14.0 mg/kg/injection, schedule: Q07DX002 (ip), vehicle: carboxymethylcellulose (CMC)): 34 % of control
T/C (dose: 16.0 mg/kg/injection, schedule: Q01DX006 (iv), vehicle: carboxymethylcellulose (CMC)): 7 % of control
T/C (dose: 16.0 mg/kg/injection, schedule: Q01DX011 (im), vehicle: carboxymethylcellulose (CMC)): 2 % of control
T/C (dose: 16.0 mg/kg/injection, schedule: Q01DX011 (ip), vehicle: carboxymethylcellulose (CMC)): 3 % of control
T/C (dose: 16.0 mg/kg/injection, schedule: Q01DX011 (sc), vehicle: carboxymethylcellulose (CMC)): 3 % of control
T/C (dose: 16.0 mg/kg/injection, schedule: Q03DX004 (ip), vehicle: carboxymethylcellulose (CMC)): 8 % of control
T/C (dose: 24.0 mg/kg/injection, schedule: Q01DX006 (iv), vehicle: carboxymethylcellulose (CMC)): 4 % of control
T/C (dose: 24.0 mg/kg/injection, schedule: Q01DX011 (im), vehicle: carboxymethylcellulose (CMC)): 4 % of control
T/C (dose: 24.0 mg/kg/injection, schedule: Q01DX011 (ip), vehicle: carboxymethylcellulose (CMC)): 3 % of control
T/C (dose: 24.0 mg/kg/injection, schedule: Q01DX011 (sc), vehicle: carboxymethylcellulose (CMC)): 3 % of control
T/C (dose: 28.0 mg/kg/injection, schedule: Q01DX001 (ip), vehicle: carboxymethylcellulose (CMC)): 12 % of control
T/C (dose: 28.0 mg/kg/injection, schedule: Q07DX002 (ip), vehicle: carboxymethylcellulose (CMC)): 30 % of control
T/C (dose: 32.0 mg/kg/injection, schedule: Q01DX006 (iv), vehicle: carboxymethylcellulose (CMC)): 5 % of control
T/C (dose: 32.0 mg/kg/injection, schedule: Q01DX011 (im), vehicle: carboxymethylcellulose (CMC)): 3 % of control
T/C (dose: 48.0 mg/kg/injection, schedule: Q01DX011 (sc), vehicle: carboxymethylcellulose (CMC)): 2 % of control
T/C (dose: 56.0 mg/kg/injection, schedule: Q01DX001 (ip), vehicle: carboxymethylcellulose (CMC)): 10 % of control
T/C (dose: 56.0 mg/kg/injection, schedule: Q07DX002 (ip), vehicle: carboxymethylcellulose (CMC)): 18 % of control
T/C (dose: 64.0 mg/kg/injection, schedule: Q01DX011 (sc), vehicle: carboxymethylcellulose (CMC)): 3 % of control
T/C (dose: 112.0 mg/kg/injection, schedule: Q01DX001 (ip), vehicle: carboxymethylcellulose (CMC)): 10 % of control
T/C (dose: 112.0 mg/kg/injection, schedule: Q07DX002 (ip), vehicle: carboxymethylcellulose (CMC)): 1 % of control

Cn1c(N)nc2c(ncn2C2CC(O)C(CO)O2)c1=O (stereo unspecified)
T/C (dose: 30.0 mg/kg/injection, schedule: Q01DX011 (ip), vehicle: carboxymethylcellulose (CMC)): 109 % of control
T/C (dose: 60.0 mg/kg/injection, schedule: Q01DX011 (ip), vehicle: carboxymethylcellulose (CMC)): 82 % of control
T/C (dose: 120.0 mg/kg/injection, schedule: Q01DX011 (ip), vehicle: carboxymethylcellulose (CMC)): 89 % of control

O=C(CCBr)NCCCCCNC(=O)CCBr
T/C (dose: 56.0 mg/kg/injection, schedule: Q01DX011 (ip), vehicle: methylcellulose (MC)): 86 % of control
T/C (dose: 113.0 mg/kg/injection, schedule: Q01DX011 (ip), vehicle: methylcellulose (MC)): 71 % of control
T/C (dose: 225.0 mg/kg/injection, schedule: Q01DX011 (ip), vehicle: methylcellulose (MC)): 78 % of control
T/C (dose: 450.0 mg/kg/injection, schedule: Q01DX011 (ip), vehicle: methylcellulose (MC)): 47 % of control

CC1CN1P(=O)(N1CC2CCC(CC2)C1)N1CC1C (stereo unspecified)
T/C (dose: 7.0 mg/kg/injection, schedule: Q01DX011 (ip), vehicle: saline): 109 % of control
T/C (dose: 14.0 mg/kg/injection, schedule: Q01DX011 (ip), vehicle: saline): 87 % of control
T/C (dose: 28.0 mg/kg/injection, schedule: Q01DX011 (ip), vehicle: saline): 87 % of control

C(=N\OCCc1ccccc1)/c1cccnc1
T/C (dose: 88.0 mg/kg/injection, schedule: Q01DX011 (ip), vehicle: methylcellulose (MC)): 70 % of control

CCOc1ccc2nc(S(N)(=O)=O)sc2c1
T/C (dose: 50.0 mg/kg/injection, schedule: Q01DX011 (ip), vehicle: methylcellulose (MC)): 60 % of control
T/C (dose: 100.0 mg/kg/injection, schedule: Q01DX011 (ip), vehicle: carboxymethylcellulose (CMC)): 23 % of control and 30 % of control
T/C (dose: 100.0 mg/kg/injection, schedule: Q01DX011 (ip), vehicle: methylcellulose (MC)): 89 % of control
T/C (dose: 200.0 mg/kg/injection, schedule: Q01DX011 (ip), vehicle: carboxymethylcellulose (CMC)): 13 % of control
T/C (dose: 400.0 mg/kg/injection, schedule: Q01DX011 (ip), vehicle: methylcellulose (MC)): 19 % of control
